This note sets out measurements from US20260183274A1, “PDK1 REGULATORY COMPOUND AND COMPOSITION CONTAINING THE SAME” (PROVIBIO CO., LTD., priority 2024, published 2026).

In series [1] the test system is Human multiple myeloma, KMS26. Put plainly: Relative cell viability, KMS26. Format: cell-based. Particulars: KMS26 cells, relative to untreated cells. The procedure: (§1) After that, 10 μL of CCK-8 was added to each well, and the plate was incubated again at 37° C. in a 5% CO2 incubator for 2 hours.
(§2) In other words, when the survival rate of untreated cells (DMSO) is set at 100%, the relative cell survival rate in each group treated with the drug at different concentrations is indicated.

Series [2] relates to Balb/c mice with induced pulmonary fibrosis. Put plainly: Bleomycin-induced pulmonary fibrosis animal model. It is filed as in vivo, mouse. Particulars: vs BLM-treated group; for Collagen deposition (Masson's trichrome, Sirius red): FIG. 42; for Expression of α-SMA in lung tissue (IHC): FIG. 43. An excerpt:
To evaluate the therapeutic efficacy of the compound according to the present invention against pulmonary fibrosis, an animal model of pulmonary fibrosis induced by bleomycin intratracheal administration was established.
For this purpose, 8-week-old male Balb/c mice were subjected to general anesthesia using an inhalation anesthetic (2-3% isoflurane in oxygen), followed by disinfection of the neck region, skin incision, and exposure of the trachea.
Bleomycin (Sigma-Aldrich, USA) was directly administered into the trachea at a concentration of 5 mg/kg in a solution of 100 μL.
Two days prior to Bleomycin administration, the compound of the present invention or the comparative drug was administered intraperitoneally at the specified concentration and dose, and the administration was continued once daily for a total of 14 days.
The experimental groups included Normal, Bleomycin alone (BLM), and BLM plus the compound of the present invention (BLM+GO88, 0.2 mg/kg).
Ten days later, the mice were euthanized humanely using carbon dioxide gas, the trachea was incised, and PBS was injected into the trachea to remove blood from the lungs.
The lung tissue washed with PBS was excised, fixed in 4% paraformaldehyde solution for 24 hours, and then paraffin blocks and tissue sections were prepared. The prepared sections were subjected to pathological analysis using H&E, Masson's trichrome, and Sirius red staining.
Additionally, immunohistochemical (IHC) staining was performed for α-SMA (α-smooth muscle actin), an indicator of lung fibroblast activation.

Series [3] has as its system Human Kidney Cancer cell line, ACHN. As to the kind of experiment: Relative cell viability CCK-8, ACHN. It is filed as cell-based. Particulars: 48 hours. The procedure: Similarly, human-derived cervical cancer cell line HeLa and renal cancer cell line ACHN, obtained from the Korean Cell Bank, were cultured in DMEM medium containing 10% FBS, 100 U/mL penicillin, and 100 μg/mL streptomycin.
Following stabilization, the cells were harvested using Trypsin-EDTA treatment, centrifuged at 1,200 rpm for 3 minutes, the supernatant was removed, and the cells were resuspended in the same medium. They were then seeded into a 96-well plate (Costar 96-well cell culture plate, Corning) at 100 μL per well, and the conditions were adjusted as indicated in Table 5.
The cells were cultured in a 5% CO2 incubator at 37° C. for 24 hours, and after stabilization of the cells, each plate was washed with 200 μL of PBS per well and treated with 50 μL of culture medium per well.
The compounds according to the present invention or the control group (DMSO) were added at concentrations of 0, 10, 30, and 50 μM in 50 μL aliquots to the plates, and the plates were cultured at 37° C. in a 5% CO2 incubator for 48 hours.
as §1, §2

Series [4] relates to Human multiple myeloma, KMS12PE. As to the kind of experiment: Relative cell viability, KMS12PE. The settings on record: KMS-12-PE. Format: cell-based. The procedure:
as §1, §2

In series [5] the test system is NHDF (Normal Human Dermal Fibroblast) cells. Put plainly: Doxorubicin/IGF-1 induced aging of NHDF cells (SA-β-gal, Ki-67 FACS). The settings on record: 0.01, 1 μM; Doxorubicin 100 ng/ml + IGF-1 100 ng/ml, 7 days; FIG. 39. It is filed as cell-based. The procedure:
To confirm the anti-aging and rejuvenating effects of the compound GO15F of the present invention, a NHDF (Normal Human Dermal Fibroblast, Promocell) cell model was established by inducing aging with doxorubicin (Doxorubicin), and β-galactosidase activity and Ki-67 expression were analyzed in the cells. First, NHDF cells were seeded at 1×10^4 cells per well in a 12-well plate and stabilized for 24 hours. […] After pre-incubation, the medium was removed, and the cells were cultured for 7 days in medium containing Doxorubicin (100 ng/ml) and IGF-1 (100 ng/ml) with GO15F. During this process, the medium was replaced with fresh medium every 2 days. The cultured cells were washed with PBS, fixed with 1× fixation buffer for 15 minutes, washed again with PBS, and then 300 μL of 1× working SA-β-gal buffer was added to each well. The cells were incubated at 37° C. for 24 hours. After the reaction was terminated, the cells were washed with PBS, and the […] of β-gal-positive cells stained blue was observed and photographed using a light microscope. Additionally, to investigate the effect of the compound (GO15F) of the present invention on proliferation activity in aging-induced NHDF (Normal Human Dermal Fibroblast) cells, Ki-67 expression was measured via FACS analysis. First, NHDF cells were seeded at 1×10^4 cells per well in a 12-well plate and stabilized for 24 hours. […]

Usually viability stands for a read-out of living cells in per cent, often relative to untreated cells. Low values mean more harm to the cells, high ones less harm to the cells.

Turning to `CC1(C)CN(CCCCCCCCCCCCC(=O)Nc2nc(N)c3[nH]cnc3n2)CCO1` [Compound 11, 12-[4-(2,2-dimethylmorpholin-4-yl)]dodecyl-N-(6-aminopurine-2-yl) carboxamide], the “Relative cell viability (%)” value in series [1] (1 μM) is 31.19%.

For the compound `Nc1ncccc1C(=O)NCCCCCCCCCCCCN1CCNCC1` [Compound 14, 2-Amino-N-(12-(piperazin-1-yl)dodecyl)nicotinamide], in series [2], the “Collagen deposition (Masson's trichrome, Sirius red)” value is “significantly reduced” and the “Expression of α-SMA in lung tissue (IHC)” value is reported as “significantly suppressed”.

Consider `Nc1nc(NC(=O)CCCCCCCCCCCCN2CCN(CCO)CC2)nc2nc[nH]c12` [Compound 15, 12-[4-(2-hydroxyethyl)piperazin-1-yl]dodecyl-N-(6-aminopurine-2-yl) carboxamide], for which, in series [3], the viability at 1 µM turned out to be 31.7%, the viability at 10 µM turned out to be 30%, the viability at 30 µM turned out to be 30.6% and the viability at 50 µM came to 30.3%.

For the compound `Nc1ncccc1C(=O)NCCCCCCCCCCCCN1CCNCC1` [Compound 5, 2-Amino-N-(12-(piperazin-1-yl)dodecyl)-nicotinamide], in series [3], the viability at 1 µM came out at 29.5%, the viability at 10 µM worked out at 30%, the viability at 30 µM stood at 29.2% and the viability at 50 µM came out at 28.3%.

With `Nc1ncccc1C(=O)NCCCCCCCCCCCCF` [Compound 57, 2-Amino-N-(12-fluoro-dodecyl)-nicotinamide], the viability at 10 µM in series [4] worked out at 41.7%; in series [1] (Homo sapiens, KMS-26, 10 μM), 44.4%. Also, in series [1] (Homo sapiens, KMS-26, 30 μM), the viability at 30 µM was found to be 43.1%. For the same compound, the “Number of β-gal-positive cells (SA-β-gal)” value in series [5] is recorded as “the number of β-gal-positive cells decreased”. The “Collagen deposition (Masson's trichrome, Sirius red)” value in series [2] is listed as “significantly reduced”. In addition, in series [2], the “Expression of α-SMA in lung tissue (IHC)” value is “significantly suppressed”.
